≈ marks a conversion by molar mass, not a printed value.
Experiments:
Assay type in all cases: functional
[1] = system: Streptococcus pneumoniae; test: Bacteriostatic activity against […] Streptococcus pneumoniae ATCC 49619 after 20 to 24 hrs by two-fold microbroth dilution method
[2] = system: Streptococcus pneumoniae; test: Bactericidal activity against […] Streptococcus pneumoniae ATCC 49619 incubated for 20 to 24 hrs followed by sub-culturing for 24 hrs in absence of compound
[3] = system: Streptococcus pneumoniae; test: Ratio of MBC to MIC for […] Streptococcus pneumoniae ATCC 49619
[4] = system: Streptococcus pneumoniae; test: Bacteriostatic activity against penicillin-susceptible Streptococcus pneumoniae PU09 after 20 to 24 hrs by two-fold microbroth dilution method
[5] = system: Streptococcus pneumoniae; test: Bactericidal activity against penicillin-susceptible Streptococcus pneumoniae PU09 incubated for 20 to 24 hrs followed by sub-culturing for 24 hrs in absence of compound
[6] = system: Streptococcus pneumoniae; test: Ratio of MBC to MIC for penicillin-susceptible Streptococcus pneumoniae PU09
[7] = system: Streptococcus pyogenes; test: Bacteriostatic activity against Streptococcus pyogenes 01-968 expressing inducible ermA after 20 to 24 hrs by two-fold microbroth dilution method
[8] = system: Streptococcus pyogenes; test: Bactericidal activity against Streptococcus pyogenes 01-968 expressing inducible ermA incubated for 20 to 24 hrs followed by sub-culturing for 24 hrs in absence of compound
[9] = system: Streptococcus pyogenes; test: Ratio of MBC to MIC for Streptococcus pyogenes 01-968 expressing inducible ermA
[10] = system: Streptococcus pyogenes; test: Bacteriostatic activity against Streptococcus pyogenes 12-207 expressing mef after 20 to 24 hrs by two-fold microbroth dilution method
[11] = system: Streptococcus pyogenes; test: Bactericidal activity against Streptococcus pyogenes 12-207 expressing mef incubated for 20 to 24 hrs followed by sub-culturing for 24 hrs in absence of compound
[12] = system: Streptococcus pyogenes; test: Ratio of MBC to MIC for Streptococcus pyogenes 12-207 expressing mef
[13] = system: Haemophilus influenzae; test: Bacteriostatic activity against azithromycin-susceptible/ampicillin-resistant Haemophilus influenzae 11P307 after 20 to 24 hrs by two-fold microbroth dilution method
[14] = system: Haemophilus influenzae; test: Bactericidal activity against azithromycin susceptible/ampicillin-resistant Haemophilus influenzae 11P307 incubated for 20 to 24 hrs followed by sub-culturing for 24 hrs in absence of compound
[15] = system: Haemophilus influenzae; test: Ratio of MBC to MIC for azithromycin susceptible/ampicillin-resistant Haemophilus influenzae 11P307
[16] = system: Staphylococcus aureus; test: Bacteriostatic activity against methicillin-resistant Staphylococcus aureus PU20 expressing constitutive ermC after 20 hrs by two-fold microbroth dilution method; conditions: PU20, 20 h
[17] = system: Staphylococcus aureus; test: Bactericidal activity against methicillin-resistant Staphylococcus aureus PU20 expressing constitutive ermC incubated for 20 hrs followed by sub-culturing for 24 hrs in absence of compound
[18] = system: Staphylococcus aureus; test: Ratio of MBC to MIC for methicillin-resistant Staphylococcus aureus PU20 expressing constitutive ermC
[19] = system: Staphylococcus aureus; test: Bacteriostatic activity against methicillin-resistant Staphylococcus aureus PU32 expressing inducible ermA after 20 hrs by two-fold microbroth dilution method; conditions: PU32, 20 h
[20] = system: Staphylococcus aureus; test: Bactericidal activity against methicillin-resistant Staphylococcus aureus PU32 expressing inducible ermA incubated for 20 hrs followed by sub-culturing for 24 hrs in absence of compound
[21] = system: Staphylococcus aureus; test: Ratio of MBC to MIC against methicillin-resistant Staphylococcus aureus PU32 expressing inducible ermA
[22] = system: Moraxella catarrhalis; test: Bacteriostatic activity against erythromycin-susceptible Moraxella catarrhalis 11B366 after 20 hrs by two-fold microbroth dilution method; conditions: 11B366, 20 h
[23] = system: Moraxella catarrhalis; test: Bactericidal activity against erythromycin-susceptible Moraxella catarrhalis 11B366 incubated for 20 hrs followed by sub-culturing for 24 hrs in absence of compound
[24] = system: Moraxella catarrhalis; test: Ratio of MBC to MIC against erythromycin-susceptible Moraxella catarrhalis 11B366
[25] = system: Moraxella catarrhalis; test: Bacteriostatic activity against erythromycin-susceptible Moraxella catarrhalis 13L332 after 20 hrs by two-fold microbroth dilution method; conditions: 13L332, 20 h
[26] = system: Moraxella catarrhalis; test: Bactericidal activity against erythromycin-susceptible Moraxella catarrhalis 13L332 incubated for 20 hrs followed by sub-culturing for 24 hrs in absence of compound
[27] = system: Moraxella catarrhalis; test: Ratio of MBC to MIC against erythromycin-susceptible Moraxella catarrhalis 13L332

SMILES	MIC [1] [µg/mL]	MBC [2] [µg/mL]	Ratio [3]	MIC [4] [µg/mL]	MBC [5] [µg/mL]	Ratio [6]	MIC [7] [µg/mL]	MBC [8] [µg/mL]	Ratio [9]	MIC [10] [µg/mL]	MBC [11] [µg/mL]	Ratio [12]	MIC [13] [µg/mL]	MBC [14] [µg/mL]	Ratio [15]	MIC [16] [µg/mL]	MBC [17] [µg/mL]	MIC [19] [µg/mL]	MBC [20] [µg/mL]	Ratio [21]	other results
CC[C@H]1OC(=O)[C@H](C)C(=O)[C@H](C)[C@@H](O[C@@H]2O[C@H](C)C[C@H](N(C)C)[C@H]2O)[C@](C)(OC)C[C@@H](C)/C(=N\OCC#Cc2cncc3ccccc23)[C@H](C)[C@H]2OC(=O)O[C@@]21C	≤ 0.008	0.031 (≈ 0.039 µM)	>=4	0.25 (≈ 0.315 µM)	0.5 (≈ 0.63 µM)	2	0.25 (≈ 0.315 µM)	> 2	>8	0.016 (≈ 0.0202 µM)	> 0.125	>8	16 (≈ 20.2 µM)	> 128	>8	32 (≈ 40.3 µM)	64 (≈ 80.6 µM)	1 (≈ 1.26 µM)	> 8	>8	Ratio [18]: 2; MIC [22]: 4 µg/mL (≈ 5.04 µM); MBC [23]: 4 µg/mL (≈ 5.04 µM); Ratio [24]: 1
CC[C@H]1OC(=O)[C@H](C)[C@H](OC(=O)c2ccccn2)[C@H](C)[C@@H](O[C@@H]2O[C@H](C)C[C@H](N(C)C)[C@H]2O)[C@](C)(OC)C[C@@H](C)/C(=N\OC)[C@H](C)[C@H]2OC(=O)O[C@@]21C	64 (≈ 85.3 µM)	> 64		64 (≈ 85.3 µM)	> 64		> 64	> 64								> 256	> 256	> 256	> 256		MIC [25]: 32 µg/mL (≈ 42.7 µM); MBC [26]: > 64 µg/mL
CC[C@H]1OC(=O)[C@@](C)(F)[C@H](OC(=O)Cc2ccccn2)[C@H](C)[C@@H](O[C@@H]2O[C@H](C)C[C@H](N(C)C)[C@H]2O)[C@](C)(OC)C[C@@H](C)/C(=N\OC)[C@H](C)[C@H]2OC(=O)O[C@@]21C	64 (≈ 81.9 µM)	64 (≈ 81.9 µM)	1	32 (≈ 40.9 µM)	> 64		64 (≈ 81.9 µM)	> 64								> 256	> 256	> 256	> 256		MIC [25]: 32 µg/mL (≈ 40.9 µM); MBC [26]: 64 µg/mL (≈ 81.9 µM); Ratio [27]: 2
C=CCN(C)[C@H]1C[C@@H](C)O[C@@H](O[C@@H]2[C@@H](C)C(=O)[C@@H](C)C(=O)O[C@H](CC)[C@@]3(C)OC(=O)O[C@@H]3[C@@H](C)/C(=N/OC/C=C/c3cnc4ccccc4c3)[C@H](C)C[C@@]2(C)OC)[C@@H]1O	0.062 (≈ 0.0754 µM)	0.25 (≈ 0.304 µM)	4	0.5 (≈ 0.608 µM)	0.5 (≈ 0.608 µM)	1	0.5 (≈ 0.608 µM)	4 (≈ 4.87 µM)	8	0.25 (≈ 0.304 µM)	1 (≈ 1.22 µM)	4	32 (≈ 38.9 µM)	> 256	>8	> 256		2 (≈ 2.43 µM)	> 16	>8	MIC [22]: 8 µg/mL (≈ 9.73 µM); MBC [23]: 16 µg/mL (≈ 19.5 µM); Ratio [24]: 2
CC[C@H]1OC(=O)[C@@](C)(F)C(=O)[C@H](C)[C@@H](O[C@@H]2O[C@H](C)C[C@H](N(C)C)[C@H]2O)[C@](C)(OC)C[C@@H](C)/C(=N\OC/C=C/c2ccc3ncccc3c2)[C@H](C)[C@H]2OC(=O)O[C@@]21C	≤ 0.008	0.016 (≈ 0.0197 µM)	>=2	0.5 (≈ 0.614 µM)	1 (≈ 1.23 µM)	2	0.25 (≈ 0.307 µM)	1 (≈ 1.23 µM)	4	0.062 (≈ 0.0762 µM)	> 0.5	>8	8 (≈ 9.83 µM)	> 64	>8	32 (≈ 39.3 µM)	64 (≈ 78.6 µM)	1 (≈ 1.23 µM)	> 8	>8	Ratio [18]: 2; MIC [22]: 2 µg/mL (≈ 2.46 µM); MBC [23]: 2 µg/mL (≈ 2.46 µM); Ratio [24]: 1
